From PMC10599528, “GPC-100, a novel CXCR4 antagonist, improves in vivo hematopoietic cell mobilization when combined with propranolol” (PLOS ONE, 2023)
Where two headings read alike, the source gives them in different places. One block for each molecule: values may come before it.

Assays:
circulating WBCs [1] = assay: In vivo WBC mobilization to peripheral blood (CBC analysis); set-up: species or system C57BL/6J mice
Method: Studies were performed at a facility accredited by the Association for Assessment and Accreditation of Laboratory Animal Care and in strict accordance with the recommendations in the Guide for the Care and Use of Laboratory Animals of the National Institute of Health. […] C57BL/6J mice (female, 6–9 weeks old) were ordered from Jackson Laboratories and allowed to habituate for one week before handling. They were housed 5 per cage and had free access to food and water.
Mice were monitored daily and weighed prior to drug administration. Based on the body weight data, mice were randomized into groups using the randomization tool in Benchling Studies randomization software. PB was collected by submental bleeding (non-terminal) or cardiac puncture (terminal). For terminal blood collections, mice were placed in an induction chamber with 2.5–4% isoflurane and then a maintenance dose of 2–3% through a nose cone. A toe pinch on all four quadrants was applied to confirm the surgical plane of anesthesia. Upon completion of terminal blood collection from cardiac puncture, the mice were euthanized via cervical dislocation while still under the effects of isoflurane. Approximately 25 μL blood was used for CBC analysis and the remaining blood was processed for flow cytometry or colony forming unit (CFU) assay. For non-terminal submental bleeding, a 4mm lancet was used to puncture the linguofacialis vein under the chin. […] For the time-course of mobilization, each mouse was bled twice. Submental bleeding was performed at 0.5 h, 1 h or 2 h after the respective dosing and cardiac puncture was performed at 3 h, 4 h and 6 h post-dose.
Blood samples were processed for complete blood count (CBC) analysis using the Abaxis VetScan HM5 hematology analyzer (Abaxis), which reports 18-parameters including WBC, lymphocytes, neutrophils, monocytes, platelets, hemoglobin, RBC and morphology.

CXCR4 and β2AR = assay: Calcium flux in MDA-MB-231 cells endogenously expressing CXCR4 and β2AR, CXCL12 plus epinephrine; assay type: cell-based; conditions: 10 μM of each antagonist; 200 nM CXCL12, 10 μM epinephrine
Method: MDA-MB-231 cells endogenously expressing CXCR4 and β2AR, or transduced with adenoviruses encoding CXCR4 for overexpression were used for calcium flux. Cells were cultured for 2 days prior to running the assay and seeded at 8×10^4 cells/well in a 96-well black clear-bottom microplate. The following day, cells were stained with Cal-520 AM (AAT Bioquest) for 2 h at 37°C and treated with antagonists for 30 min followed by agonist stimulation. Intracellular calcium flux was measured using a Flexstation 3 microplate reader (Molecular Devices).

circulating WBCs [2] = conditions: mice, 5 mg/kg SC; cited from earlier work
U937 cells = assay: CXCL12-mediated transwell migration of U937 cells; conditions: Homo sapiens, U-937, 24 h, read-out: IC50, blockade of CXCL12-mediated migration
Method: (§1) Cells were allowed to migrate toward CXCL12 in the presence or absence of the antagonists for 4 h (MM.1S) or 24 h (U937) at 37°C. The migration of U937 cells was measured using PrestoBlue Cell Viability Reagent (Invitrogen). For MM.1S cell line, the migrated cells were counted by flow cytometry. The fluorescence intensity (560 nm/590 nm excitation/emission) was detected using a Varioskan LUX Multimode Microplate Reader.
MM.1S (A) or U937 (B) cells were
(§2) suspended in serum-free media containing 0.5% BSA at 5X106 cells/ml and 100 μl of cell
(§3) suspension was added to transwell insert. SDF-1/CXCL12 at the indicated concentrations in 800
(§4) μl of serum-free media containing 0.5% BSA was added to the lower chamber of the transwell.
(§5) The transwell insert with 100 μl cell suspension was put on the lower chamber very carefully
(U937) to allow cell migration.

MM.1S cells = assay: CXCL12-induced transwell migration of MM.1S cells; conditions: Homo sapiens, MM1.S, 4 h, read-out: IC50, blockade of CXCL12-induced migration
Method: as §1
MM.1S (A) or U937 (B) cells were
as §2, §3, §4, §5
(U937) to allow cell migration.

CD34+ cells = conditions: at least; cited from earlier work

IC50 (U937 cells): 42 nM | IC50 (MM.1S cells): 80 nM
Molecule: c1cc(CN2CCCNCCNCCCNCC2)ccc1CN1CCCNCCNCCCNCC1 [AMD3100]
increase in circulating WBCs compared to the vehicle (circulating WBCs [1]; 1 hour post-drug, GPC-100 30 mg/kg IV, AMD3100 5 mg/kg SC, single injection): 3 fold | time of peak mobilization (circulating WBCs [1]; time-course 30 min to 6 hours post-drug, GPC-100 30 mg/kg IV, AMD3100 5 mg/kg SC): 2 h | inhibition of synergistic calcium flux induced by CXCL12 and epinephrine (CXCR4 and β2AR): partially inhibited | time of peak mobilization (circulating WBCs [2]): 1 h

Molecule: CC(C)NCC(O)COc1cccc2ccccc12 (stereo not drawn) [propranolol]
inhibition of synergistic calcium flux induced by CXCL12 and epinephrine (CXCR4 and β2AR): partially inhibited

B1: G-CSF: Granulocyte-colony stimulating factor; recombinant murine G-CSF in the mouse studies (protein, UniProt P09920 31-208, looked up)
Granulocyte …: VPLVTVSALPPSLPLPRSFLLKSLEQVRKIQASGSVLLEQLCATYKLCHPEELVLLGHSLGIPKASLSGCSSQALQQTQCLSQLHSGLCLYQGLLQALSGISPALAPTLDLLQLDVANFATTIWQQMENLGVAPTVQPTQSAMPAFTSAFQRRAGGVLAISYLQGFLETARLALHHLA
increase in WBC mobilization (circulating WBCs [1]; G-CSF 0.1 mg/kg SC BID days 2-6, propranolol 20 mg/kg IP 7 days, GPC-100 30 mg/kg IV or AMD3100 5 mg/kg SC day 7): 4.5 fold | MM patients in whom an optimal number of HSC is not mobilized (CD34+ cells): 40–50%
